What was measured:
[1] = logP determination (acidic, formic acid)
Myzus persicae [2] = experiment: Myzus test (spray treatment); format: in vivo; conditions: foliar, read-out: Wirkung
Text: Myzus-Test (Spritzbehandlung)
Zur Herstellung einer zweckmäßigen Wirkstoffzubereitung vermischt man 1 Gewichtsteil Wirkstoff mit den angegebenen Mengen Lösungsmittel und Emulgator und verdünnt das Konzentrat mit emulgatorhaltigem Wasser auf die gewünschte Konzentration.
Chinakohlblattscheiben (Brassica pekinensis), die von allen Stadien der Grünen Pfirsichblattlaus (Myzus persicae) befallen sind, werden mit einer Wirkstoffzubereitung der gewünschten Konzentration gespritzt.
Nach der gewünschten Zeit wird die Wirkung in % bestimmt. Dabei bedeutet 100 %, dass alle Blattläuse abgetötet wurden; 0 % bedeutet, dass keine Blattläuse, abgetötet wurden.

physchem = conditions: formic acid
Myzus persicae [3] = experiment: Myzus test - oral; format: in vivo; conditions: read-out: Wirkung
Text: Lösungsmittel: 80,0 Gewichtsteile Aceton
Zur Herstellung einer zweckmäßigen Wirkstoffzubereitung vermischt man 1 Gewichtsteil Wirkstoff mit den angegebenen Mengen Lösungsmittel und verdünnt das Konzentrat mit Wasser auf die gewünschte Konzentration.
Gefäße werden mit allen Stadien der Grünen Pfirsichblattlaus (Myzus persicae) besetzt, durch saugen an der Wirkstoffzubereitung der gewünschten Konzentration wird behandelt.
Nach der gewünschten Zeit wird die Wirkung in % bestimmt. Dabei bedeutet 100 %, dass alle Blattläuse abgetötet wurden; 0 % bedeutet, dass keine Blattläuse abgetötet wurden.

[4] = 500 g/ha, spray on infested Brassica pekinensis leaf discs, 100 % = all aphids killed
[5] = 500 g/ha, oral uptake by sucking on the active compound preparation, 100 % = all aphids killed

Question: For `O=C(NCCCl)NC1CCc2ccsc21` (stereo not shown) [Beispiel 1, 1-(2-Chloroethyl)-3-(5,6-dihydro-4H-cyclopenta[b]thien-6-yl)-harnstoff], which logP ([1]; formic acid) is on record?
Answer: The logP was 1.77.

Question: Which mortality at 500 g/ha (Myzus persicae [2]; in Brassica rapa) does the source give for `c1cc2c(s1)C(NC1=NCCO1)CC2` (stereo not shown) [Beispiel 2, N-(5,6-Dihydro-4H-cyclopenta[b]thien-6-yl)-4,5-dihydro-1,3-oxazol-2-amin] here?
Answer: Its mortality at 500 g/ha is no less than 80%.

Question: What about the logP (physchem) of the same compound?
Answer: The logP was 0.42.

Question: Which mortality at 500 g/ha (Myzus persicae [2]; [4]) does the source give for `COCCNC(=S)N1CCO/C1=N\C1CCc2ccsc21` (stereo not shown) [Beispiel 3, (2Z)-2-(5,6-Dihydro-4H-cyclopenta[b]thien-6-ylimino)-N-(2-methoxyethyl)-1,3-oxazolidine-3-carbothioamid] here?
Answer: Its mortality at 500 g/ha is no less than 80%.

Question: And the logP ([1]; acidic)?
Answer: The logP was 3.32.

Question: Which logP ([1]; acidic) does the source give for `O=C(NCCCl)NC1CCc2ncccc21` (stereo not shown) [Beispiel 4, 1-(2-Chloroethyl)-3-(6,7-dihydro-5H-cyclopenta[b]pyridin-5-yl)-harnstoff] here?
Answer: The logP was 0.23.

Question: What does the source list for `COCCNC(=S)N1CCO/C1=N\C1CCc2ncccc21` (stereo not shown) [Beispiel 6, (2Z)-2-(6,7-Dihydro-5H-cyclopenta[b]pyridin-5-ylimino)-N-(2-methoxyethyl)-1,3-oxazolidine-3-carbothioamid]?
Answer: mortality at 500 g/ha (Myzus persicae [2]; [4]): ≥ 80%; logP ([1]; acidic): 1.03

Question: With `CNC(=S)N1CCOC1=NC1CCc2ccsc21` (stereo not shown) [Beispiel 7] as the compound, how does the mortality at 500 g/ha (Myzus persicae [2]; [4]) read?
Answer: Its mortality at 500 g/ha is no less than 80%.

Question: Which mortality at 500 g/ha (Myzus persicae [2]; [4]) does the source give for `CCOC(=O)CNC(=S)N1CCOC1=NC1CCc2ccsc21` (stereo not shown) [Beispiel 14] here?
Answer: The mortality at 500 g/ha was no less than 80%.

Question: For `Clc1cc2c(s1)C(N=C1NCCO1)CC2` (stereo not shown) [Beispiel 18], which mortality at 500 g/ha (Myzus persicae [2]; [4]) is on record?
Answer: Its mortality at 500 g/ha is no less than 80%.

Question: For `CNC(=S)N1CCOC1=NC1CCc2cc(Cl)sc21` (stereo not shown) [Beispiel 19], which mortality at 500 g/ha (Myzus persicae [2]; [4]) is on record?
Answer: Its mortality at 500 g/ha is no less than 80%.

Question: For `CNC(=S)N1CCOC1=NC1CCc2ncccc21` (stereo not shown) [Beispiel 30], which mortality at 500 g/ha (Myzus persicae [2]; [4]) is on record?
Answer: Its mortality at 500 g/ha is no less than 80%.

Question: With `Cc1cnc2c(c1)CCC2N=C1NCCO1` (stereo not shown) [Beispiel 43] as the compound, how does the mortality at 500 g/ha (Myzus persicae [3]; po) read?
Answer: The mortality at 500 g/ha was no less than 80%.

Question: With `CNC(=S)N1CCOC1=NC1CCc2cc(C)cnc21` (stereo not shown) [Beispiel 44] as the compound, how does the mortality at 500 g/ha (Myzus persicae [3]; [5]) read?
Answer: Its mortality at 500 g/ha is no less than 80%.

Question: With `CCOC(=O)CNC(=S)N1CCOC1=NC1CCc2cc(C)cnc21` (stereo not shown) [Beispiel 47] as the compound, how does the mortality at 500 g/ha (Myzus persicae [3]; [5]) read?
Answer: Its mortality at 500 g/ha is no less than 80%.
